Measurements: ChEMBL document CHEMBL5244254, “Potential treatment methods targeting 2019-nCoV infection” (Eur J Med Chem, 2020)
Converted amounts (≈) assume the structure as drawn.

Experiments:
[1] = Inhibition of Severe acute respiratory syndrome coronavirus 3CL protease; design: species or system Severe acute respiratory syndrome-related coronavirus
[2] = Cytotoxicity against African green monkey Vero E6 cells assessed as cell growth inhibition incubated for 48 hrs by CCK8 assay; assay type: toxicity, cell-based, Vero C1008; settings: chlorocebus sabaeus
[3] = Selectivity ratio of CC50 for African green monkey Vero E6 cells to EC50 for Severe acute respiratory syndrome coronavirus infected in African green monkey Vero E6 cells; assay type: toxicity, Vero C1008; settings: read-out: Ratio CC50/EC50
Ebolavirus = assay: Antiviral activity against Ebolavirus infected in African green monkey Vero E6 cells; assay type: functional, organism-based; settings: Orthoebolavirus, Vero C1008
[4] = Cytotoxicity against African green monkey Vero E6 cells assessed as cell growth inhibition incubated for 24 hrs by CCK8 assay; assay type: toxicity, cell-based, Vero C1008; settings: chlorocebus sabaeus
[5] = Selectivity ratio of CC50 for African green monkey Vero E6 cells to EC50 for Severe acute respiratory syndrome coronavirus […]; assay type: toxicity, Vero C1008; settings: read-out: Ratio CC50/EC50
SARS-CoV [6] = assay: Antiviral activity against Severe acute respiratory syndrome coronavirus infected in African green monkey Vero E6 cells; assay type: functional, organism-based; settings: Severe acute respiratory syndrome-related coronavirus, Vero C1008
SARS-CoV-2 [7] = assay: Antiviral activity against Severe acute respiratory syndrome coronavirus 2 infected in African green monkey Vero cells incubated for 24 to 48 hrs; assay type: functional, organism-based; settings: Severe acute respiratory syndrome coronavirus 2, Vero
SARS-CoV-2 [8] = assay: Antiviral activity against Severe acute respiratory syndrome coronavirus 2 incubated for 48 hrs by TCID50 assay; assay type: functional, organism-based; settings: Severe acute respiratory syndrome coronavirus 2, 48 h
SARS-CoV-2 [9] = assay: Antiviral activity against Severe acute respiratory syndrome coronavirus 2; assay type: functional, organism-based
[10] = Cytotoxicity against African green monkey Vero E6 cells assessed as cell growth inhibition incubated for 48 hrs; assay type: toxicity, cell-based, Vero C1008; settings: chlorocebus sabaeus
SARS-CoV [11] = assay: Antiviral activity against Severe acute respiratory syndrome coronavirus; assay type: functional, organism-based; settings: Severe acute respiratory syndrome-related coronavirus
[12] = Inhibition of Severe acute respiratory syndrome coronavirus CYP3A4; assay type: ADME, Severe acute respiratory syndrome-related coronavirus
Zika virus [13] = assay: Antiviral activity against Zika virus MR-766 infected in african green monkey Vero cells; assay type: functional, organism-based; settings: MR-766, Vero
Zika virus [14] = assay: Antiviral activity against Zika virus Paraiba-01 infected in african green monkey Vero cells; assay type: functional, organism-based; settings: Paraiba-01, Vero
West Nile virus [15] = assay: Antiviral activity against West Nile virus Eg101 infected in african green monkey Vero cells; assay type: functional, organism-based
West Nile virus [16] = assay: Antiviral activity against West Nile virus 13-104 infected in african green monkey Vero cells; assay type: functional, organism-based; settings: 13-104, Vero
[17] = system: Tick-borne encephalitis virus; assay: Antiviral activity against Tick-borne encephalitis virus Hypr infected in african green monkey Vero cells; assay type: functional, organism-based

SMILES: Cc1cc(C(=O)N[C@@H](C)C(=O)N[C@H](C(=O)N[C@@H](CC(C)C)C(=O)N[C@H](/C=C/C(=O)OCc2ccccc2)C[C@@H]2CCNC2=O)C(C)C)no1
- EC50 [1]: 16.8 µM

SMILES: NC(=O)c1nc(F)cnc1O
- CC50 at 48 h [2]: > 400 µM
- selectivity ratio [3]: > 6.46
- EC50 (Ebolavirus): 10.5 µg/mL (≈ 66.8 µM)

SMILES: O=C[C@H](C[C@@H]1CCNC1=O)NC(=O)[C@H](Cc1cccc(F)c1)NC(=O)c1cc2ccccc2[nH]1
- CC50 at 24 h [4]: > 100 µM
- selectivity ratio [5]: > 139

SMILES: O=C[C@H](C[C@@H]1CCNC1=O)NC(=O)[C@H](CC1CCCCC1)NC(=O)c1cc2ccccc2[nH]1
- CC50 at 24 h [4]: > 100 µM

SMILES: CC(C)(C)OC(=O)Nc1cccn([C@@H](CC2CC2)C(=O)N[C@H](CC(=O)NCc2ccccc2)C[C@@H]2CCNC2=O)c1=O
- EC50 [1]: 4 µM

SMILES: CCN(CC)CCCC(C)Nc1ccnc2cc(Cl)ccc12 (configuration not stated) [CHLOROQUINE]
- EC50 (SARS-CoV [6]): 1.13 µM
- CC50 at 48 h [2]: > 100 µM
- selectivity ratio [3]: > 88.5

SMILES: CCN(CCO)CCCC(C)Nc1ccnc2cc(Cl)ccc12 (configuration not stated) [HYDROXYCHLOROQUINE]
- EC50 (SARS-CoV-2 [7]): 0.72 µM

SMILES: Cc1cccc(C)c1OCC(=O)N[C@@H](Cc1ccccc1)[C@@H](O)C[C@H](Cc1ccccc1)NC(=O)[C@H](C(C)C)N1CCCNC1=O [LOPINAVIR]
- EC50 (SARS-CoV-2 [8]): 26.1 µM

SMILES: CCOC(=O)C1=C[C@@H](OC(CC)CC)[C@H](NC(C)=O)[C@@H](N)C1 [OSELTAMIVIR]
- EC50 (SARS-CoV-2 [9]): > 100 µM
- CC50 at 48 h [10]: > 100 µM

SMILES: NC(=O)c1ncn([C@@H]2O[C@H](CO)[C@@H](O)[C@H]2O)n1 [RIBAVIRIN]
- EC50 (SARS-CoV [11]): > 100 µM

SMILES: CC(C)c1nc(CN(C)C(=O)N[C@H](C(=O)N[C@@H](Cc2ccccc2)C[C@H](O)[C@H](Cc2ccccc2)NC(=O)OCc2cncs2)C(C)C)cs1 [RITONAVIR]
- EC50 [12]: > 100 µM

SMILES: CCOC(=O)c1c(CSc2ccccc2)n(C)c2cc(Br)c(O)c(CN(C)C)c12 [UMIFENOVIR]
- EC50 (Zika virus [13]): 10.6 µM
- EC50 (Zika virus [14]): 10.6 µM
- EC50 (West Nile virus [15]): 10.6 µM
- EC50 (West Nile virus [16]): 10.6 µM
- EC50 [17]: 10.6 µM
